Data on one compound can be found in PMC5824344 (ACS Chemical Biology, 2017).

The structures appear in SMILES notation.

The assay has as its system GluI and GluII in Raji (B lymphocyte) cells. Briefly: Free oligosaccharide (FOS) assay in Raji cells. The following applies: 48 h, 50 µm. It is filed as cell-based, human. The method, then: 5 Cell and Virus Culture and Assays
5.1 Culture of Cell Lines
The human hepatoma cell line Huh7.5 (Apath, LLC) was cultured in Dulbecco’s modiﬁed Eagle medium (DMEM) with Glutamax (Gibco) supplemented with 100 µg mL−1 strepto-mycin (Sigma), 100 U mL−1 penicillin (Sigma), 100 µm MEM non-essential amino acids (Gibco) and 10% (volume/volume, v/v) heat-inactivated (56 ◦C, 30 min) fetal calf serum (FCS, Seralab). The human monocytic cell line HL60 (ATCC), human T lymphocyte cell line Jurkat (ATCC), and human B lymphocyte cell line Raji (ATCC) were each maintained in RPMI 1640 media with Glutamax (Gibco) supplemented with 100 µg mL−1 streptomycin, 100 U mL−1 penicillin and 10% (v/v) FCS. […]
Cell viability was measured using the CellTiter 96 R© AQueous One Solution Cell Prolifera-tion MTA (3-(4,5-dimethylthiazol-2-yl)-5-(3-carboxymethoxyphenyl)-2-(4-sulfophenyl)-2H - […]
After a further one to two hour incubation, the absorbance at 490 nm was measured on a Molecular Devices SpectraMax M5 microplate reader. […]
Absorbances were averaged across replicates, and corrected for background by subtracting the value for media-only wells. Each drug treatment was then evaluated as a percentage of untreated cells. […]
FOS analysis was carried out as described previously. […] Before purifying the FOS, each sample was analyzed for protein content using the modiﬁed Bradford assay. […]

Turning to `Cc1c(C)c2c(c(C)c1OCCCCCN1CC(O)C(O)C(O)C1CO)CCC(C)(CCCC(C)CCCC(C)CCCC(C)C)O2` (centres unmarked) [Compound 4, 5′-tocopheroxypentyl-DNJ], the “glucosylated free oligosaccharides (FOS) observed after treatment” value is recorded as “nor Raji”. Besides, for the setting “listed as ToP-DNJ 4”, the “glucosylated free oligosaccharides (FOS) observed after treatment” value is “no glucosylated FOS were detected”.
